What was measured:
Assay in all cases: SILAC RP-ABPP
Format in all cases: cell-based
[1] = biological target: T1, GAA Lysosomal alphaglucosidase (P10253) (Homo sapiens, UniProt P10253); conditions: SILAC H/L, MDA-MB-231
T1 construct: In Situ Labelling of Cells with Hydrazine Probes for MS Experiments; endogenous in cells
Method: (§1) For MS-based experiments, labelling was performed in a similar manner as described above in Example 2, maintaining the same concentrations of probes. Modifications to this protocol included using isotopically ‘light’ and ‘heavy’ SILAC cells that were also grown to near complete confluence prior to treatment. Isotopically light cells were treated with the non-clickable hydrazine probe (at the same concentration as the probe in ‘enrichment’ experiments) or the probe in the presence of 10-fold excess non-clickable hydrazine probe as a competitor (in ‘competition’ experiments). Isotopically heavy cells were treated with the probe for both types of experiments. These treatments were performed in non-SILAC media. Following treatments, cells were washed with cold PBS to remove the probe-containing media, harvested by scraping, collected by centrifugation (1,400 g, 3 min, 4° C.), washed again by resuspension in cold PBS and frozen as pellets at −80° C. until use.
(§2) The fractionated equimolar mixture of heavy and light soluble proteomes (1-1.5 mg) was diluted to 1 mL in PBS. Click reactions were scaled accordingly (except for biotin-azide) to maintain final concentrations of 0.1 mM TBTA, 1 mM CuSO4, 100 μM biotin-azide (10 mM in DMSO) and 1 mM TCEP. The mixture was vortexed and placed on a rotator at ambient temperature for 1 hour. Sequential addition of and mixture with pre-chilled methanol (MeOH, 2 mL), chloroform (CHCl3, 0.5 mL) and PBS (1 mL) on ice quenched the reaction. The precipitated proteome was centrifuged (5,000 g, 10 min, 4° C.) to fractionate the protein interphase from the organic and aqueous solvent layers. The protein pellet was washed with cold 1:1 MeOH:CHCl3 (3×1 mL), mildly sonicated in cold 4:1 MeOH:CHCl3 (2.5 mL) and pelleted once more by centrifugation (5,000 g, 10 min, 4° C.) to ensure click reagents were efficiently removed.
(§3) Heavy and light parent ion chromatograms associated with successfully identified peptides were extracted and compared using CIMAGE software as previously described^69. At least one ion of a co-eluting heavy-light pair must be accurately identified from a fragmentation event that occurred within the retention time window (±10 min) of parent ion elution. To ensure that the correct pair of peaks is quantified, chromatograms are extracted within a 10 ppm error tolerance of the predicted m/z, the signal-to-noise ratio must be >2.5 and the ‘co-elution correlation score’ and ‘envelope correlation score’ must have R^2 values ≥0.8. In addition, peptides detected as ‘singletons,’ where only the heavy ion of a peptide pair was identified, but for which passed all other filtering parameters, are given a default assigned ratio of ‘20,’ which is defined as any measured ratio that is ≥20.
(§4) To further eliminate false positives and any stochastic variability in the data, protein ratios were then determined by the median peptide ratio derived from three or more unique quantified peptides. Protein ratios that complied with these criteria from a single experiment were then averaged with ratios acquired from ≥3 replicates to provide final values for each type of experiment in both cell lines with both probes. […] Most importantly, there are no robustly measured ratios for proteins identified as probe 1 targets that had measured ratios of ˜1 with probe 2. Probe targets in HEK293T and MDA-MB-231 cells represent data combined from ≥3 independent biological replicates with each cell type performed with several independent batches of synthesized probes over a period of almost two years. […]

[2] = biological target: T2, GNS Nacetylglucosamine6sulfatase (P15586) (Homo sapiens, UniProt P15586); conditions: SILAC H/L, MDA-MB-231
T2 construct: In Situ Labelling of Cells with Hydrazine Probes for MS Experiments; endogenous in cells
T2 sequence (P15586 37-552): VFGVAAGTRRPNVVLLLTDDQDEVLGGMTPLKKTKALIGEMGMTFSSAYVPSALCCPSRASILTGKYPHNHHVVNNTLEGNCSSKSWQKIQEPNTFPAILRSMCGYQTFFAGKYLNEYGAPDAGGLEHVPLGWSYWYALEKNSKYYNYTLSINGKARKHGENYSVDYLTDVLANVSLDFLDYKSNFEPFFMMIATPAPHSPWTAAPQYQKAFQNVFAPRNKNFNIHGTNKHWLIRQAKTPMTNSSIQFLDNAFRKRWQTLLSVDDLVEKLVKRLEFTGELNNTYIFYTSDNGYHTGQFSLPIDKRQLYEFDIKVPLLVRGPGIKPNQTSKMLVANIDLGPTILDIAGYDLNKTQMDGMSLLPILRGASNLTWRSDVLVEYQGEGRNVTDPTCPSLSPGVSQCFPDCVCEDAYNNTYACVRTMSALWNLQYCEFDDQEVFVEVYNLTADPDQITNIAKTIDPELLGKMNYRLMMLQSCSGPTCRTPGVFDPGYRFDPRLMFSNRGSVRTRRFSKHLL
Method: as §1, §2, §3, §4

[3] = biological target: T3, IBA57 Putative transferase CAF17 (Q5T440) (Homo sapiens, UniProt Q5T440); conditions: SILAC H/L, HEK293T
T3 construct: shared by both the endogenous and recombinant forms of these proteins; endogenous in cells; host or cells: HEK293T and MDA-MB-231
T3 sequence (Q5T440 40-356): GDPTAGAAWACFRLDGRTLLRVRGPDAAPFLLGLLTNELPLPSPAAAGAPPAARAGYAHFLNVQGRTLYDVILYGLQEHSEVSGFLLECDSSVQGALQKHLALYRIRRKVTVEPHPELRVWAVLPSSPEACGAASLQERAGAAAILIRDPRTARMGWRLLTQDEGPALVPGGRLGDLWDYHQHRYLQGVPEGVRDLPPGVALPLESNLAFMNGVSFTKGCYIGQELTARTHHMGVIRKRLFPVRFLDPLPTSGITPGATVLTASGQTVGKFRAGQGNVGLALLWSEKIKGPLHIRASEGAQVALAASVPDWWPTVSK
Method: as §1, §2, §3, §4

[4] = biological target: T4, NT5DC2 5nucleotidase domaincontaining (Q9H857) (Homo sapiens, UniProt Q9H857); conditions: SILAC H/L, HEK293T
T4 construct: shared by both the endogenous and recombinant forms of these proteins; endogenous in cells; host or cells: HEK293T and MDA-MB-231
T4 sequence (Q9H857 1-520): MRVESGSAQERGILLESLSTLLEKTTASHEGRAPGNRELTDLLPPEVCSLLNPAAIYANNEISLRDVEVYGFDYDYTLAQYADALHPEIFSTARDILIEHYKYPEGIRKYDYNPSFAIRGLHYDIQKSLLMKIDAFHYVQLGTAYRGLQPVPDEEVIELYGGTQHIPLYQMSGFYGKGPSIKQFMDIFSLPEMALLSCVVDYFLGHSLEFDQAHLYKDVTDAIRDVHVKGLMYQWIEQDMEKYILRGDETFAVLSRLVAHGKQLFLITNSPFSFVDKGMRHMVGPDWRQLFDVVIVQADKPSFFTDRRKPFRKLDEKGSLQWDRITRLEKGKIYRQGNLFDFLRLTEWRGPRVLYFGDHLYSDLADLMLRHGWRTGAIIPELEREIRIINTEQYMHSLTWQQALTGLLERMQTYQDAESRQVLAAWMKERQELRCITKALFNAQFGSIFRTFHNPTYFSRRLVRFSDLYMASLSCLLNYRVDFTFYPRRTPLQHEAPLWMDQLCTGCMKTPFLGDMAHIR
Method: as §1, §2, §3, §4

SMILES	enrichment ratioavg ([1]; probe 1 3 mM 0.5 h vs probe 3)	competition ratioavg ([1]; probe 1 vs probe 1+10x probe 3)	enrichment ratioavg ([2]; probe 1 3 mM 0.5 h vs probe 3)	competition ratioavg ([2]; probe 1 vs probe 1+10x probe 3)	enrichment ratioavg ([3]; probe 1 3 mM 0.5 h vs probe 3)	competition ratioavg ([3]; probe 1 vs probe 1+10x probe 3)	enrichment ratioavg ([4]; probe 1 3 mM 0.5 h vs probe 3)	competition ratioavg ([4]; probe 1 vs probe 1+10x probe 3)	enrichment ratioavg ([1]; probe 2 1 mM 0.5 h vs probe 4)	competition ratioavg ([1]; probe 2 vs probe 2+10x probe 4)	enrichment ratioavg ([2]; probe 2 1 mM 0.5 h vs probe 4)	competition ratioavg ([2]; probe 2 vs probe 2+10x probe 4)	enrichment ratioavg ([3]; probe 2 1 mM 0.5 h vs probe 4)	competition ratioavg ([3]; probe 2 vs probe 2+10x probe 4)	enrichment ratioavg ([4]; probe 2 1 mM 0.5 h vs probe 4)	competition ratioavg ([4]; probe 2 vs probe 2+10x probe 4)
C#CCNN.Cl [probe 1, prop-2-yn-1-ylhydrazine hydrochloride]	9	2	10	3	14	3	11	3								
C#CCCNC(=O)c1ccc(NN)cc1.Cl [probe 2, N-(but-3-yn-1-yl)-4-hydrazinylbenzamide hydrochloride]									20	4	7	3	9	4	16	4
